Data: ChEMBL document CHEMBL1201862, “PubChem BioAssay data set” (2004)
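Growth conditions: 96-well plates. Treatment: test compound, 48 hours, 5 concentrations. Analysis: linear interpolation between bracketing concentrations; unreached endpoints set to highest concentration. Abbreviation: GI50, concentration required for 50% inhibition of growth.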 Active and inactive are the calls of the source. Rule as the data show it: active = GI50 up to about 1.1 µM and inactive = higher.

Experiments:
Assay in all cases: DTP human tumour cell line panel, 48 h
[1] = tested on: UACC-62
[2] = tested on: SF-295
[3] = tested on: OVCAR-8
[4] = tested on: SW-620
[5] = tested on: NCI-H23
[6] = tested on: HOP-92
[7] = tested on: SF-268
[8] = tested on: HT-29
[9] = tested on: A498
[10] = tested on: MDA-MB-231
[11] = tested on: HCT-15
[12] = tested on: UACC-257
[13] = tested on: EKVX
[14] = tested on: IGROV-1
[15] = tested on: COLO 205
[16] = tested on: CCRF-CEM
[17] = tested on: SNB-75
[18] = tested on: OVCAR-3
[19] = tested on: NCI-H460
[20] = tested on: NCI-H522
[21] = tested on: K562
[22] = tested on: NCI/ADR-RES
[23] = tested on: KM12
[24] = tested on: NCI-H226
[25] = tested on: SK-MEL-28
[26] = tested on: HCT-116
[27] = tested on: SNB-19
[28] = tested on: 786-0
[29] = tested on: OVCAR-5
[30] = tested on: Hs-578T
[31] = tested on: U-251
[32] = tested on: T47D
[33] = tested on: MDA-MB-435
[34] = tested on: BT-549
[35] = tested on: DU-145
[36] = tested on: OVCAR-4
[37] = tested on: UO-31
[38] = tested on: RXF 393
[39] = tested on: SK-MEL-5
[40] = tested on: SK-MEL-2
[41] = tested on: LOX IMVI
[42] = tested on: HL-60
[43] = tested on: Malme-3M
[44] = tested on: A549
[45] = tested on: TK-10
[46] = tested on: M14
[47] = tested on: MCF7
[48] = tested on: RPMI-8226
[49] = tested on: ACHN
[50] = tested on: SK-OV-3
[51] = tested on: MOLT-4
[52] = tested on: HOP-62
[53] = tested on: PC-3
[54] = tested on: HCC 2998
[55] = tested on: SN12C
[56] = tested on: MDA-N
[57] = tested on: SF-539
[58] = tested on: CAKI-1
[59] = tested on: SR

Q: `c1ccc2c(c1)Oc1cccc3cccc-2c13` was tested. Which GI50 [1] did it give?
A: Its GI50 is > 100 µM (inactive).

Q: And the GI50 [2]?
A: The GI50 was > 100 µM (inactive).

Q: What about the GI50 [3] of the same molecule?
A: Its GI50 is > 100 µM (inactive).

Q: What about the GI50 [4] of the same molecule?
A: Its GI50 is > 100 µM (inactive).

Q: And the GI50 [5]?
A: Its GI50 is > 100 µM (inactive).

Q: What about the GI50 [6] of the same molecule?
A: The GI50 was > 100 µM (inactive).

Q: And the GI50 [7]?
A: The GI50 was > 100 µM (inactive).

Q: And the GI50 [8]?
A: Its GI50 is > 100 µM (inactive).

Q: And the GI50 [9]?
A: Its GI50 is > 100 µM (inactive).

Q: What about the GI50 [10] of the same molecule?
A: Its GI50 is > 100 µM (inactive).

Q: And the GI50 [11]?
A: Its GI50 is 98.4 µM.

Q: And the GI50 [12]?
A: The GI50 was > 100 µM (inactive).

Q: And the GI50 [13]?
A: Its GI50 is > 100 µM (inactive).

Q: And the GI50 [14]?
A: Its GI50 is > 100 µM (inactive).

Q: What about the GI50 [15] of the same molecule?
A: Its GI50 is > 100 µM (inactive).

Q: What about the GI50 [16] of the same molecule?
A: The GI50 was > 100 µM (inactive).

Q: And the GI50 [17]?
A: Its GI50 is > 100 µM (inactive).

Q: And the GI50 [18]?
A: The GI50 was 42.3 µM (inactive).

Q: And the GI50 [19]?
A: Its GI50 is > 100 µM (inactive).

Q: What about the GI50 [20] of the same molecule?
A: The GI50 was > 100 µM (inactive).

Q: And the GI50 [21]?
A: The GI50 was > 100 µM (inactive).

Q: What about the GI50 [22] of the same molecule?
A: The GI50 was > 100 µM (inactive).

Q: What about the GI50 [23] of the same molecule?
A: Its GI50 is > 100 µM (inactive).

Q: And the GI50 [24]?
A: The GI50 was > 100 µM (inactive).

Q: What about the GI50 [25] of the same molecule?
A: Its GI50 is > 100 µM (inactive).

Q: And the GI50 [26]?
A: Its GI50 is > 100 µM (inactive).

Q: And the GI50 [27]?
A: The GI50 was > 100 µM (inactive).

Q: And the GI50 [28]?
A: Its GI50 is > 100 µM (inactive).

Q: What about the GI50 [29] of the same molecule?
A: The GI50 was > 100 µM (inactive).

Q: What about the GI50 [30] of the same molecule?
A: The GI50 was > 100 µM (inactive).

Q: And the GI50 [31]?
A: Its GI50 is > 100 µM (inactive).

Q: And the GI50 [32]?
A: Its GI50 is > 100 µM (inactive).

Q: And the GI50 [33]?
A: The GI50 was > 100 µM (inactive).

Q: What about the GI50 [34] of the same molecule?
A: Its GI50 is > 100 µM (inactive).

Q: And the GI50 [35]?
A: Its GI50 is > 100 µM (inactive).

Q: And the GI50 [36]?
A: Its GI50 is > 100 µM (inactive).

Q: What about the GI50 [37] of the same molecule?
A: The GI50 was > 100 µM (inactive).

Q: What about the GI50 [38] of the same molecule?
A: Its GI50 is > 100 µM (inactive).

Q: What about the GI50 [39] of the same molecule?
A: The GI50 was > 100 µM (inactive).

Q: What about the GI50 [40] of the same molecule?
A: Its GI50 is > 100 µM (inactive).

Q: And the GI50 [41]?
A: Its GI50 is > 100 µM (inactive).

Q: What about the GI50 [42] of the same molecule?
A: The GI50 was > 100 µM (inactive).

Q: And the GI50 [43]?
A: The GI50 was > 100 µM (inactive).

Q: What about the GI50 [44] of the same molecule?
A: The GI50 was > 100 µM (inactive).

Q: And the GI50 [45]?
A: Its GI50 is > 100 µM (inactive).

Q: And the GI50 [46]?
A: The GI50 was > 100 µM (inactive).

Q: And the GI50 [47]?
A: Its GI50 is > 100 µM (inactive).

Q: And the GI50 [48]?
A: Its GI50 is > 100 µM (inactive).

Q: What about the GI50 [49] of the same molecule?
A: The GI50 was > 100 µM (inactive).

Q: And the GI50 [50]?
A: The GI50 was > 100 µM (inactive).

Q: And the GI50 [51]?
A: The GI50 was 98.2 µM (inactive).

Q: And the GI50 [52]?
A: The GI50 was > 100 µM (inactive).

Q: And the GI50 [53]?
A: The GI50 was > 100 µM (inactive).

Q: What about the GI50 [54] of the same molecule?
A: Its GI50 is > 100 µM (inactive).

Q: What about the GI50 [55] of the same molecule?
A: The GI50 was > 100 µM (inactive).

Q: And the GI50 [56]?
A: Its GI50 is > 100 µM (inactive).

Q: And the GI50 [57]?
A: The GI50 was > 100 µM (inactive).

Q: What about the GI50 [58] of the same molecule?
A: Its GI50 is > 100 µM (inactive).

Q: How did the GI50 [1] turn out when `COc1ccc2nc3cc([N+](=O)[O-])ccc3c(Nc3ccc(S(=O)(=O)N=C(N)N)cc3)c2c1` was run?
A: The GI50 was 14.6 µM (inactive).

Q: And the GI50 [2]?
A: Its GI50 is 47.1 µM (inactive).

Q: And the GI50 [4]?
A: Its GI50 is 36.8 µM (inactive).

Q: What about the GI50 [5] of the same molecule?
A: Its GI50 is 26.8 µM (inactive).

Q: What about the GI50 [6] of the same molecule?
A: The GI50 was 11.5 µM (inactive).

Q: And the GI50 [7]?
A: Its GI50 is 28 µM (inactive).

Q: What about the GI50 [8] of the same molecule?
A: Its GI50 is 22.1 µM (inactive).

Q: And the GI50 [9]?
A: Its GI50 is > 100 µM (inactive).

Q: What about the GI50 [10] of the same molecule?
A: The GI50 was 17.2 µM (inactive).

Q: And the GI50 [11]?
A: The GI50 was 36.2 µM.

Q: What about the GI50 [12] of the same molecule?
A: The GI50 was 51.2 µM (inactive).

Q: What about the GI50 [13] of the same molecule?
A: Its GI50 is 15.2 µM (inactive).

Q: And the GI50 [15]?
A: Its GI50 is 23.1 µM (inactive).

Q: What about the GI50 [16] of the same molecule?
A: The GI50 was 11 µM (inactive).

Q: And the GI50 [18]?
A: Its GI50 is 16.5 µM (inactive).

Q: What about the GI50 [19] of the same molecule?
A: Its GI50 is 9.82 µM (inactive).

Q: And the GI50 [20]?
A: The GI50 was 18.8 µM (inactive).

Q: What about the GI50 [21] of the same molecule?
A: The GI50 was 18.3 µM (inactive).

Q: And the GI50 [23]?
A: The GI50 was 15.5 µM (inactive).

Q: What about the GI50 [24] of the same molecule?
A: The GI50 was 20.4 µM (inactive).

Q: And the GI50 [25]?
A: Its GI50 is > 100 µM (inactive).

Q: What about the GI50 [26] of the same molecule?
A: The GI50 was 11.9 µM (inactive).

Q: What about the GI50 [27] of the same molecule?
A: The GI50 was 43.6 µM (inactive).

Q: And the GI50 [28]?
A: Its GI50 is 20.1 µM (inactive).

Q: What about the GI50 [29] of the same molecule?
A: The GI50 was > 100 µM (inactive).

Q: What about the GI50 [30] of the same molecule?
A: Its GI50 is 30.9 µM (inactive).

Q: And the GI50 [31]?
A: Its GI50 is 30.5 µM (inactive).

Q: And the GI50 [32]?
A: The GI50 was 9.91 µM (inactive).

Q: And the GI50 [33]?
A: Its GI50 is 39.9 µM (inactive).

Q: What about the GI50 [34] of the same molecule?
A: Its GI50 is 33.2 µM (inactive).

Q: What about the GI50 [35] of the same molecule?
A: Its GI50 is 28.8 µM (inactive).

Q: What about the GI50 [36] of the same molecule?
A: Its GI50 is 28.2 µM (inactive).

Q: And the GI50 [37]?
A: The GI50 was 30.5 µM (inactive).

Q: What about the GI50 [38] of the same molecule?
A: The GI50 was 40.1 µM (inactive).

Q: And the GI50 [39]?
A: Its GI50 is 15.7 µM (inactive).

Q: What about the GI50 [40] of the same molecule?
A: Its GI50 is 18.5 µM (inactive).

Q: And the GI50 [41]?
A: Its GI50 is 28.4 µM (inactive).

Q: And the GI50 [42]?
A: The GI50 was 11.9 µM (inactive).

Q: And the GI50 [43]?
A: The GI50 was 14 µM (inactive).

Q: And the GI50 [44]?
A: Its GI50 is 47 µM (inactive).

Q: What about the GI50 [45] of the same molecule?
A: The GI50 was 47.2 µM (inactive).

Q: What about the GI50 [46] of the same molecule?
A: The GI50 was 30.5 µM (inactive).

Q: And the GI50 [47]?
A: Its GI50 is 9.55 µM (inactive).

Q: And the GI50 [48]?
A: The GI50 was 10.5 µM (inactive).

Q: What about the GI50 [49] of the same molecule?
A: Its GI50 is 40.9 µM (inactive).

Q: And the GI50 [50]?
A: Its GI50 is 58.5 µM (inactive).

Q: And the GI50 [51]?
A: The GI50 was 2.72 µM (inactive).

Q: What about the GI50 [52] of the same molecule?
A: The GI50 was 27.2 µM (inactive).

Q: And the GI50 [53]?
A: Its GI50 is 12 µM (inactive).

Q: What about the GI50 [54] of the same molecule?
A: Its GI50 is 19 µM (inactive).

Q: What about the GI50 [55] of the same molecule?
A: Its GI50 is 48.1 µM (inactive).

Q: What about the GI50 [56] of the same molecule?
A: Its GI50 is 39.3 µM (inactive).

Q: And the GI50 [59]?
A: The GI50 was 1.32 µM (inactive).

Q: What about the GI50 [57] of the same molecule?
A: Its GI50 is 24.1 µM (inactive).

Q: And the GI50 [58]?
A: The GI50 was 23.3 µM (inactive).
